Data taken from patent US20070218460A1, “Method of Estimating Toxicity of Drug” (TAKEDA PHARMACEUTICAL COMPANY LIMITED, priority 2003, published 2007).

Tests used:
HepG2 cells [1] = experiment: Highest concentration at which cells were viable after 72 hr exposure; format: cell-based, human
flj22362 = experiment: Real-time quantitative PCR of PLsis marker gene expression; format: cell-based, human; conditions: HepG2 cells, 24 hr exposure, relative value, control group = 1.0, GAPDH internal standard, n=3
Method: (§1) Using RNeasy Mini Kit (QIAGEN), total RNA was purified from the cells, and cDNA was synthesized in a 100 μL system using TaqMan Reverse Transcription Reagents (PE Applied Biosystems).
(§2) As the primer for glyceraldehyde-3-phosphoric acid dehydrogenase (GAPDH) and VIC labeled probe, those attached to TaqMan GAPDH Control Reagents (PE Applied Biosystems) were used.
(§3) Using 100 μL of the reaction mixture containing 5 μL of cDNA (1×TaqMan Universal PCR Master Mix (PE Applied Biosystems), 200 nM forward primer, 200 nM reverse primer and 200 nM TaqMan probe), 40 cycles of (1 cycle=95° C., 15 sec; 60° C., 1 min) PCR were performed. PCR and fluorescence detection were performed using ABI PRISM Sequence Detector 7000 (PE Applied Biosystems). As the internal standard, GAPDH was used to amend the measurement values. For the determination of significant difference, t-test was used (n=3).
(§4) For each test compound, the expression variation rate of 12 genes each relative to the control group was determined.

mgc4171 = experiment: as above; format: cell-based, human; conditions: HepG2 cells, 24 hr exposure, relative value, control group = 1.0, GAPDH internal standard, n=3
Method: as §1, §2, §3, §4

serpina3 = experiment: as above; format: cell-based, human; conditions: HepG2 cells, 24 hr exposure, relative value, control group = 1.0, GAPDH internal standard, n=3
Method: as §1, §2, §3, §4

depp = experiment: as above; format: cell-based, human; conditions: HepG2 cells, 24 hr exposure, relative value, control group = 1.0, GAPDH internal standard, n=3
Method: as §1, §2, §3, §4

kiaa1001 = experiment: as above; format: cell-based, human; conditions: HepG2 cells, 24 hr exposure, relative value, control group = 1.0, GAPDH internal standard, n=3
Method: as §1, §2, §3, §4

tagln = experiment: as above; format: cell-based, human; conditions: HepG2 cells, 24 hr exposure, relative value, control group = 1.0, GAPDH internal standard, n=3
Method: as §1, §2, §3, §4

fabp1 = experiment: as above; format: cell-based, human; conditions: HepG2 cells, 24 hr exposure, relative value, control group = 1.0, GAPDH internal standard, n=3
Method: as §1, §2, §3, §4

lss = experiment: as above; format: cell-based, human; conditions: HepG2 cells, 24 hr exposure, relative value, control group = 1.0, GAPDH internal standard, n=3
Method: as §1, §2, §3, §4

asah1 = experiment: as above; format: cell-based, human; conditions: HepG2 cells, 24 hr exposure, relative value, control group = 1.0, GAPDH internal standard, n=3
Method: as §1, §2, §3, §4

nr0b2 = experiment: as above; format: cell-based, human; conditions: HepG2 cells, 24 hr exposure, relative value, control group = 1.0, GAPDH internal standard, n=3
Method: as §1, §2, §3, §4

slc2a3 = experiment: as above; format: cell-based, human; conditions: HepG2 cells, 24 hr exposure, relative value, control group = 1.0, GAPDH internal standard, n=3
Method: as §1, §2, §3, §4

hpn = experiment: as above; format: cell-based, human; conditions: HepG2 cells, 24 hr exposure, relative value, control group = 1.0, GAPDH internal standard, n=3
Method: as §1, §2, §3, §4

HepG2 cells [2] = experiment: Electron-microscopic examination of PLsis induction potential (myelin-like structure)
Source text: Using 30 kinds of the following commercially available drugs as test compounds, the level of PLsis induction potential was examined with the emergence of an intracellular myelin-like structure or a structure having a high electron density, which is an early image thereof, as an index by electronmicroscopic observation.
HepG2 cells (purchased from ATCC) were exposed to the test compound by a conventional method. HepG2 cells used were of the cell growth phase. The attached HepG2 cells were washed twice with. Dulbecco's phosphate buffered saline (calcium and magnesium salt free; PBS(−))(Dainippon Pharmaceutical Co., Ltd.) containing 0.05 w/v % EDTA, detached with a cell dissociation solution of 0.25 vol % trypsin-1 mmol/L EDTA (Gibco BRL) diluted 2-fold with PBS(−), centrifuged to remove the supernatant, and adjusted to a concentration of 2×10^5 cells/250 μL with a culture medium [Dulbecco's modified Eagle medium (DMEM)(Gibco BRL) supplemented with 50 U/mL penicillin (Gibco BRL)-[…] streptomycin (Gibco BRL) and 5 vol % FBS (Bio whittaker)]. DMSO alone or a culture medium containing the above-mentioned test compound in DMSO solution was dispensed to a well by 250 μL, the above-mentioned cell suspension (250 μL) was added, and cultured in a CO2 incubator (7100; Napco) under an atmosphere of 5% CO2—95% air at 37° C.
After culture for 72 hr, the culture medium was removed, and the cells were fixed with 1 w/v % glutaraldehyde solution. After fixing with 2 w/v % osmic acid for 2 hr by a conventional method and dehydrating with an alcohol series, the cells were embedded in a resin (Quetol 812). Ultrathin slices were prepared and, after electron staining, observed with an electron microscope (H-300; Hitachi) and photographed in 3 or more pictures per each sample (magnification ×5000). The processing after post-fixation was performed by Applied Medical Research.

| expression variation rate flj22362 (flj22362) | expression variation rate mgc4171 (mgc4171) | expression variation rate serpina3 (serpina3) | expression variation rate depp (depp) | expression variation rate kiaa1001 (kiaa1001) | expression variation rate tagln (tagln) | expression variation rate fabp1 (fabp1) | expression variation rate lss (lss) | expression variation rate asah1 (asah1) | expression variation rate nr0b2 (nr0b2) | expression variation rate slc2a3 (slc2a3) | expression variation rate hpn (hpn) | frequency of appearance of myelin-like structure (HepG2 cells [2]) | Compound | addition concentration (highest concentration at which cells survived after 72 hr of culture) (HepG2 cells [1]) [µmol/L] |
| --- | --- | --- | --- | --- | --- | --- | --- | --- | --- | --- | --- | --- | --- | --- |
| 1.26 | 0.99 | 0.95 | 1.05 | 1.34 | 1.06 | 1.01 | 1.23 | 1.35 | 0.63 | 0.99 | 1.16 | − | CNS(=O)(=O)Cc1ccc2[nH]cc(CCN(C)C)c2c1 [sumatriptan] | 25 |
| 0.73 | 1.08 | 0.96 | 0.98 | 1.78 | 0.85 | 1.00 | 0.90 | 0.86 | 0.74 | 0.88 | 1.08 | − | CCN(CC)CCNC(=O)c1ccc(N)cc1 [procainamide] | 25 |
| 1.53 | 1.60 | 2.12 | 2.02 | 1.85 | 0.27 | 1.90 | 3.01 | 4.50 | 2.56 | 0.24 | 2.19 | ++ | CC/C(=C(\c1ccccc1)c1ccc(OCCN(C)C)cc1)c1ccccc1 [tamoxifen] | 8.3 |
| 1.00 | 1.18 | 1.39 | 0.93 | 1.48 | 0.86 | 0.91 | 0.65 | 1.55 | 0.78 | 0.86 | 0.96 | − | CC[C@H]1OC(=O)[C@H](C)[C@@H](O[C@H]2C[C@@](C)(OC)[C@@H](O)[C@H](C)O2)[C@H](C)[C@@H](O[C@@H]2O[C@H](C)C[C@H](N(C)C)[C@H]2O)[C@](C)(OC)C[C@@H](C)C(=O)[C@H](C)[C@@H](O)[C@]1(C)O [clarithromycin] | 25 |
| 0.68 | 0.77 | 0.82 | 0.79 | 0.86 | 0.74 | 0.75 | 0.78 | 1.17 | 0.81 | 0.94 | 0.72 | − | CC1COc2c(N3CCN(C)CC3)c(F)cc3c(=O)c(C(=O)O)cn1c23 (stereo not shown) [ofloxacin] | 25 |
| 2.96 | 2.43 | 2.23 | 3.24 | 2.47 | 0.30 | 2.62 | 2.98 | 3.23 | 2.46 | 0.20 | 2.97 | +++ | CN1CCN(C(c2ccccc2)c2ccc(Cl)cc2)CC1 (stereo not shown) [chlorcyclizine] | 25 |
| 0.98 | 1.21 | 0.99 | 0.90 | 0.94 | 0.99 | 1.02 | 1.14 | 1.85 | 0.63 | 1.03 | 1.12 | − | CC(C)N(CCC(C(N)=O)(c1ccccc1)c1ccccn1)C(C)C (stereo not shown) [disopyramide] | 25 |
| 0.83 | 0.79 | 0.92 | 0.83 | 0.70 | 0.90 | 0.88 | 0.75 | 1.10 | 0.79 | 1.07 | 0.83 | − | C[C@H]1COc2c(N3CCN(C)CC3)c(F)cc3c(=O)c(C(=O)O)cn1c23 [levofloxacin] | 25 |
